Data: PubChem BioAssay AID2842 (Southern Research Institute, 2010)
In brackets after ≈: the same amount, converted by molar mass.

test system: M. tuberculosis H37Rv growth inhibition; assay: Mycobacterium tuberculosis H37Rv growth inhibition, putative kinase inhibitor library, confirmatory dose response (AID 2842);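 also: bacteria incubated one week before Alamar blue readout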

First: Cc1cccc(C(=O)Nc2nnc(-c3cc(C)ccc3C)o2)c1
Second: Cc1ccc(C)c(-c2nnc(NC(=O)c3cccc([N+](=O)[O-])c3)o2)c1
The IC90 of the first is 8.7-fold lower: 3.39 µg/mL (≈ 11 µM) for the first, 29.6 µg/mL (≈ 87.4 µM) for the second.

Compared with `Cc1ccc(C)c(-c2nnc(NC(=O)c3cc([N+](=O)[O-])ccc3Cl)o2)c1`, `CSc1cccc(-c2nnc(NC(=O)c3cc([N+](=O)[O-])ccc3Cl)o2)c1` is higher in IC90: less than 0.2 µg/mL for the first, 0.88 µg/mL (≈ 2.25 µM) for the second.

First: CC1CN(c2ncnc3c2c(-c2ccccc2)cn3-c2ccc(F)cc2)CC(C)O1 (stereo not drawn)
Second: O=C(Cc1ccccc1)Nc1nnc(-c2ccc(F)cc2)o1
The IC90 of the first is 5.1-fold higher: 42.4 µg/mL (≈ 105 µM) for the first, 8.35 µg/mL (≈ 28.1 µM) for the second.

`Cc1cccc(C(=O)Nc2nnc(-c3ccccn3)o2)c1` and `Cc1ccc(C)c(-c2nnc(NC(=O)c3ccccc3)o2)c1` are within 1.5-fold of each other in IC90: 19.3 µg/mL (≈ 68.8 µM) for the first, 24.5 µg/mL (≈ 83.7 µM) for the second.

First: Cc1nnc(SCC(=O)Nc2ccc3c(c2)OCCO3)n(N)c1=O
Second: O=C(CSc1nc(-c2cccc(F)c2)[nH]c1-c1ccccc1)Nc1ccc2c(c1)OCCO2
The IC90 of the first is 2.9-fold higher: 23.1 µg/mL (≈ 66.2 µM) for the first, 7.87 µg/mL (≈ 17.1 µM) for the second.

First: O=C(Nc1nnc(-c2ccccc2Cl)o1)c1cccc(Oc2ccccc2)c1
Second: O=C(COc1ccccc1)Nc1nnc(-c2cc(Cl)ccc2Cl)o1
The IC90 of the first is 32-fold lower: 0.86 µg/mL (≈ 2.19 µM) for the first, 27.8 µg/mL (≈ 76.4 µM) for the second.

`O=C(CCOc1ccccc1)Nc1nnc(-c2ccc(Cl)s2)o1` and `Cc1ccc(-c2nnc(NC(=O)Cc3ccccc3)o2)c(C)c1` are within 1.5-fold of each other in IC90: 13.9 µg/mL (≈ 39.7 µM) for the first, 14.8 µg/mL (≈ 48.1 µM) for the second.

Going from `COc1cccc(-c2nnc(NC(=O)c3cccc(F)c3)o2)c1` to `COc1cc(OC)cc(C(=O)Nc2nnc(-c3cccc(SC)c3)o2)c1`, the IC90 rises from less than 0.2 µg/mL to 12.4 µg/mL (≈ 33.5 µM).

First: CCc1ccc(Nc2ncnc3c2cnn3-c2ccc(C)cc2C)cc1
Second: COc1ccccc1-c1cnn2c(Nc3cccc(Cl)c3)cc(C)nc12
The IC90 of the first is 3.8-fold higher: 6.47 µg/mL (≈ 18.8 µM) for the first, 1.72 µg/mL (≈ 4.71 µM) for the second.

Compared with `O=c1cnnc(N/N=C/c2ccccc2O)[nH]1`, `O=c1cnnc(N/N=C/c2cc(Br)ccc2O)[nH]1` is lower in IC90: 0.46 µg/mL (≈ 1.99 µM) for the first, less than 0.2 µg/mL for the second.

First: CCS(=O)(=O)c1cccc(C(=O)Nc2nnc(-c3ccc4c(c3)CCCC4)o2)c1
Second: O=C(Nc1nnc(-c2ccc3c(c2)CCCC3)o1)c1cccc(Cl)c1
The IC90 of the first is 1.9-fold higher: 16.3 µg/mL (≈ 39.7 µM) for the first, 8.65 µg/mL (≈ 24.4 µM) for the second.

First: CCCCOc1ccc(C(=O)Nc2nnc(-c3ccccn3)o2)cc1
Second: CCSc1ccc(C(=O)Nc2nnc(-c3ccco3)o2)cc1
The IC90 of the first is 16-fold higher: 11.6 µg/mL (≈ 34.3 µM) for the first, 0.71 µg/mL (≈ 2.25 µM) for the second.

`Cc1ccc(-c2nnc(NC(=O)c3ccc(Cl)s3)o2)c(C)c1` and `Cc1ccc(-c2nnc(NC(=O)c3nc4ccccc4s3)o2)c(C)c1` are within 1.5-fold of each other in IC90: 2.01 µg/mL (≈ 6.02 µM) for the first, 1.76 µg/mL (≈ 5.02 µM) for the second.

First: Cc1[nH]c2ccccc2c1SCCNC(=O)c1cc2ccccc2oc1=O
Second: CC(=O)CSc1nc2c([nH]c3ccccc32)c(=O)n1-c1cc(C)ccc1C
The IC90 of the first is lower: less than 0.2 µg/mL for the first, 22 µg/mL (≈ 58.2 µM) for the second.

First: COc1cccc(/C=N/Nc2nncc(=O)[nH]2)c1O
Second: COc1ccccc1-c1nnc(NC(=O)c2ccc3c(c2)CCCC3)o1
The IC90 of the first is 19-fold lower: 0.43 µg/mL (≈ 1.65 µM) for the first, 8.04 µg/mL (≈ 23 µM) for the second.

Going from `CSc1nc2cc(NC(=S)NC(=O)c3ccccc3)ccc2s1` to `CCCCC(=O)Nc1nc(-c2ccccc2)c(C(C)=O)s1`, the IC90 rises from 6.89 µg/mL (≈ 19.2 µM) to 13.7 µg/mL (≈ 45.4 µM) (2-fold).

Going from `O=C(Nc1nc(-c2ccc3c(c2)OCCO3)cs1)C1CCCCC1` to `O=C(Nc1nnc(C2=COCCO2)o1)c1ccc(F)cc1`, the IC90 falls from 11.7 µg/mL (≈ 34 µM) to 2.21 µg/mL (≈ 7.59 µM) (5.3-fold).

Going from `Cc1ccc(-c2nnc(NC(=O)C(C)C)o2)c(C)c1` to `CCC(=O)Nc1nnc(-c2ccc(C)cc2C)o1`, the IC90 falls from 8.43 µg/mL (≈ 32.5 µM) to less than 0.2 µg/mL.

`O=C1CN(C(=O)c2cccc(F)c2)C(c2ccc(F)cc2)c2cc(Br)ccc2N1` (stereo not drawn) and `CCOc1ccc(C(=O)N2CC(=O)Nc3ccc(Br)cc3C2c2ccccc2)cc1` (stereo not drawn) are within 1.5-fold of each other in IC90: 32.1 µg/mL (≈ 70.2 µM) for the first, 25.3 µg/mL (≈ 54.3 µM) for the second.

Compared with `COc1ccc2nc(Nc3nc4c(s3)CCCC4)sc2c1`, `COc1ccc2nc(Nc3nc(-c4cccs4)cs3)sc2c1` is 1.8-fold higher in IC90: 20.7 µg/mL (≈ 65.1 µM) for the first, 37.8 µg/mL (≈ 109 µM) for the second.

First: CC(C)N1CCc2c(sc(NC(=O)c3cc4c(ccc5ccccc54)oc3=O)c2C(N)=O)C1
Second: CCOC(=O)N1CCc2c(sc(NC(=O)c3ccc(Oc4ccccc4)cc3)c2C(N)=O)C1
The IC90 of the first is 41-fold higher: 40.2 µg/mL (≈ 87 µM) for the first, 0.98 µg/mL (≈ 2.11 µM) for the second.

First: COc1ccc2nc(N(CCCn3ccnc3)C(=O)Cc3ccc(F)cc3)sc2c1
Second: CCc1cccc2sc(N(CCCn3ccnc3)C(=O)c3ccc(OC)c(OC)c3)nc12
The IC90 of the first is 2.5-fold lower: 5.64 µg/mL (≈ 13.3 µM) for the first, 13.9 µg/mL (≈ 30.9 µM) for the second.

`COc1ccc(-c2noc(-c3cc4ccccc4oc3=Nc3ccc(Br)cc3)n2)cc1` and `COc1ccc(-c2nnc3c4cc(OC)c(OC)cc4n(Cc4ccccc4)cc2-3)cc1` are within 1.5-fold of each other in IC90: 13.3 µg/mL (≈ 28.1 µM) for the first, 11 µg/mL (≈ 25.8 µM) for the second.

Going from `CCCCC(=O)Nc1nnc(-c2ccc(Br)cc2)o1` to `O=C(Nc1nnc(-c2ccc(Cl)cc2)o1)c1ccco1`, the IC90 falls from 2.3 µg/mL (≈ 7.09 µM) to 1.11 µg/mL (≈ 3.83 µM) (2.1-fold).

Going from `O=C(Nc1nnc(-c2ccncc2)o1)c1cc(Cl)ccc1Cl` to `C=CCOC(=O)COc1ccc2cc(-c3ccc(Cl)cc3)c(=O)oc2c1`, the IC90 falls from 6.58 µg/mL (≈ 19.6 µM) to 2.53 µg/mL (≈ 6.82 µM) (2.6-fold).

Compared with `O=C(CSc1ncnc2c1nnn2Cc1ccc(F)cc1)N1CCOCC1`, `CCOC(=O)CNC(=O)CSc1ncnc2c1nnn2Cc1ccccc1F` is 5.9-fold lower in IC90: 19.8 µg/mL (≈ 50.9 µM) for the first, 3.38 µg/mL (≈ 8.36 µM) for the second.

First: CS(=O)(=O)Nc1cccc(C2=NN(c3nc(-c4ccccc4)c4cc(Cl)ccc4n3)C(c3ccco3)C2)c1 (stereo not drawn)
Second: Cc1ccc(C2CC(c3c(-c4ccccc4)c4cc(Cl)ccc4[nH]c3=O)=NO2)cc1 (stereo not drawn)
The IC90 of the first is 8.7-fold lower: 1.42 µg/mL (≈ 2.61 µM) for the first, 12.4 µg/mL (≈ 29.9 µM) for the second.

Compared with `CCOC(=O)c1sc(Nc2nc3ccc(OC)cc3s2)cc1C`, `CCOC(=O)c1sc(NC(=O)CCSc2ccccc2)cc1C` is 100-fold lower in IC90: 83.8 µg/mL (≈ 240 µM) for the first, 0.82 µg/mL (≈ 2.35 µM) for the second.

First: O=C(Nc1nc(-c2cccs2)c(C(=O)C(F)(F)F)s1)c1cc(-c2ccccc2)nc2ccccc12
Second: Cc1ccc(N=Nc2c(C)[nH][nH]c2=O)cc1
The IC90 of the first is 2.4-fold higher: 24.4 µg/mL (≈ 47.9 µM) for the first, 10.1 µg/mL (≈ 46.6 µM) for the second.
